Results as given in paper PMC9532558 (Acta Pharmaceutica Sinica. B, 2022).

Biological target: ATP6V0D1 (V-ATPase V0 domain subunit d1) (Homo sapiens, UniProt P61421)
Experiment: SPR
Type: binding

Chain of ATP6V0D1 (V-ATPase V0 domain subunit d1) (P61421 whole entry, the tested form may be a part): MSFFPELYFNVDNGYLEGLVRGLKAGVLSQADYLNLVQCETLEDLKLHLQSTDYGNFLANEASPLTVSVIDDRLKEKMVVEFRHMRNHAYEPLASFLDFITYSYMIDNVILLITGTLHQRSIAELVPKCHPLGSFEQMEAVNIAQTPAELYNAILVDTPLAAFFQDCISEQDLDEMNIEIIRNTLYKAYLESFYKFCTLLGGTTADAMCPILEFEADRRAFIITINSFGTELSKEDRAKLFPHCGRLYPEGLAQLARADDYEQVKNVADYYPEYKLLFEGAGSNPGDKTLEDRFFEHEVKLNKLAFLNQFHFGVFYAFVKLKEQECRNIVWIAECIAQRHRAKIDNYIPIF

Kd: 2000 nM
SMILES: COc1cc2c(c(OC)c1OC)-c1c(cc(OC)c(OC)c1OC)C[C@](C)(O)[C@@H](C)C2 [SolA, Schisandrol A]
